According to ChEMBL document CHEMBL1141021, “Anthranilimide-based glycogen phosphorylase inhibitors for the treatment of Type 2 diabetes: 2. Optimization of serine and threonine ether amino acid residues” (Bioorg Med Chem Lett, 2009):

Experiments:
Assay type in all cases: ADME, organism-based
[1] = Half life in Sprague-Dawley rat at 10 mg/kg, po or […], iv; conditions: in vivo
[2] = Clearance in Sprague-Dawley rat at 10 mg/kg, po or […], iv; conditions: in vivo
[3] = Oral bioavailability in Sprague-Dawley rat at 10 mg/kg; conditions: in vivo
Rattus norvegicus = assay: Dose normalized AUC (0 to infinity) in Sprague-Dawley rat at 1 mg/kg, po; set-up: dose 1 mg/kg, route oral, time infinity; conditions: in vivo
[4] = Volume of distribution at steady state in Sprague-Dawley rat at 10 mg/kg, po or […], iv; conditions: in vivo, read-out: Vdss

Row | Compound | half-life [1] | clearance [2] | bioavailability [3] | AUC (Rattus norvegicus) | Vd [4]
1 | Cc1cc(C)c(NC(=O)Nc2cc3ccccc3cc2C(=O)N[C@H](C(=O)O)[C@@H](C)OC(C)(C)C)c(C)c1 | 3 h | 13 mL/min/kg | 40% | 514 ng·h/mL | 0.5 L/kg
2 | Cc1cc(C)c(NC(=O)Nc2cc3ccccc3cc2C(=O)N[C@@H](COC(C)(C)C)C(=O)O)c(C)c1 | 4 h | 26 mL/min/kg | 17% | 256 ng·h/mL | 1.9 L/kg
3 | CCCC[C@H](NC(=O)c1cc2ccccc2cc1NC(=O)Nc1c(C)cc(C)cc1C)C(=O)O | 2.8 h | 4 mL/min/kg | 8% | 320 ng·h/mL | 0.6 L/kg
